We go through five compounds from US3985742A, “Process for preparing 3-hydroxymethyl cephalosporins” (priority 1975, dated 1976).

Structures are written as SMILES. “Also recorded” adds a separate entry of the source. Where a name gives a salt, the structure may show the parent alone. Read-outs that look alike come from different tables or passages of the source.

Data set [1] in a line: toxicity in uninfected mice. The following applies: mouse, in vivo. As for the experimental part:
(§1) Methods: The method employed in this characterization is as follows: Female white Swiss mice, average weight 20-23 grams, were infected intraperitoneally with 3-20 times the number of organisms calculated to be lethal for 50% of the infected control animals (3-20 LD50 doses). At the time of infection and again 6 hours later, therapy was given by the designated route. Controls of the virulence of the culture and the toxicity of the antibiotic for uninfected mice were included in the tests. Seven days after infection the test was considered complete and the amount of the antibiotic (I) that would be required to protect 50% of the infected and treated animals was calculated by the method of Knudsen and Curtis; J. Amer. Stat. Assoc. Vol. 42: page 282 (1947).

The next data set deals with bacteria. Briefly: bactericidal action and development of resistance.
Data set [2] relates to cephalosporinases and penicillinase. Kind of data set: resistance to enzymatic degradation / bacterial inactivation, summary statements.
For data set [3], the system named is gram-negative and gram-positive infections. Kind of data set: in vivo protection, summary statements. Also on record: species or system mice. The following applies: for protection against infection, oral: given orally; for in vivo activity / protection spectrum: mouse. As for the experimental part:
as §1
The method employed in these studies is the same as described above with regard to the in vivo characterization of 810A.

Another data set has as its system Escherichia coli 236. Briefly: bacterial inactivation. To be noted: 4 hours; assayed on B. subtilis (MB-964). As for the experimental part: (§2) These cultures are: Escherichia coli 236, Proteus morganii 251, Proteus morganii 356 and Proteus mirabilis 241. […] In conducting the assay, individual mixtures of the organisms and one of the antibiotics were sampled after four hours incubation and assayed for residual antibiotic activity. The procedure is the same assay method as described above against Alcaligenes faecalis MB-9 and A. viscosus MB-12.

The next data set deals with Proteus mirabilis 241. Briefly: bacterial inactivation. The following applies: washed bacterial cells, 4 h. On the procedure:
as §2

The next data set has as its system Proteus morganii 356. Briefly: bacterial inactivation. The following applies: washed bacterial cells, 4 h. As for the experimental part: as §2
In the next data set the test system is Proteus morganii 251. Kind of data set: bacterial inactivation. The following applies: washed bacterial cells, 4 h. On the procedure:
as §2

Data set [4] is described as follows: blood appearance and urinary excretion. The data set is classed as in vivo, mice. To be noted: for appearance in blood / excretion: in vivo.
A further data set has as its system gram-positive bacteria. Kind of data set: in vitro growth inhibition, summary. The data set is classed as cell-based. To be noted: S. aureus, Sarcina lutea, B. subtilis.
Data set [5] deals with Alcaligenes viscosus MB-12. Briefly: bacterial inactivation by washed bacterial cells. To be noted: 4 hour; assayed on B. subtilis (MB-964); start 4 mg/ml.
In data set [6] the test system is Alcaligenes faecalis MB-9. Kind of data set: bacterial inactivation by washed bacterial cells. To be noted: 4 hour; assayed on B. subtilis (MB-964); start 4 mg/ml.
The nature of data set [7]: isoelectric point and pH stability. Format: physicochemical. The following applies: for stability: pH 1.5.
A further data set has as its system gram-negative bacteria. Kind of data set: in vitro growth inhibition, summary. The data set is classed as cell-based.
The test system of a further data set is Vibrio percolans MB-1272. Briefly: disc-plate bioassay using Vibrio percolans. The following applies: Comamonas terrigena, MB1272, read-out: disc zone size, 5γ/ml.
Data set [8] concerns several strains of bacteria. Kind of data set: bioactivity, summary. The data set is classed as cell-based.
Data set [9] has as its system Pseudomonas stutzeri MB-1231. Briefly: disc zone bioassay of derivatives. The data set is classed as cell-based. To be noted: Stutzerimonas stutzeri, MB1231, 100γ/ml; read-out: disc zone size. The text has this:
(§3) Bioassay: the disc zone sizes in the following table are expressed in mm. for 100γ/ml of antibiotic.
Bioassay: the disc zone sizes in the following table are expressed in mm. for equal concentrations of antibiotic.
(§4) Bioassay: The disc zone sizes in the following table are expressed in mm. for equal concentrations of antibiotic.

The test system of data set [10] is Escherichia coli W-MB-60. Briefly: disc zone bioassay of derivatives. The data set is classed as cell-based. The following applies: WMB60, 100γ/ml, read-out: disc zone size.
Description: as §3, §4

Data set [11] deals with Escherichia coli, Polymyxin-resistant. Kind of data set: cross-resistance, disc-plate agar diffusion. Format: cell-based. The following applies: read-out: Inhibition Zone Diameter. A general note: In agar diffusion tests the substance spreads into inoculated agar from a disc or well.
The subject of data set [12] is Escherichia coli, Streptomycin-resistant. Briefly: cross-resistance, disc-plate agar diffusion. The data set is classed as cell-based. The following applies: read-out: Inhibition Zone Diameter.
Data set [13] deals with Staphylococcus aureus (Streptomycin-Streptothricin-resistant). Kind of data set: disc-plate agar diffusion, antibacterial spectrum. To be noted: read-out: Inhibition Zone Diameter. The data set is classed as cell-based.
A further data set concerns Serratia marcescens. Kind of data set: disc-plate agar diffusion, antibacterial spectrum. Format: cell-based. To be noted: 192 μg/ml, 25 °C, 7 mm = no zone, read-out: Inhibition Zone Diameter.
The test system of another data set is Staphylococcus aureus. Briefly: disc-plate agar diffusion, antibacterial spectrum. Format: cell-based. The following applies: 192 μg/ml, 25 °C, 7 mm = no zone, read-out: Inhibition Zone Diameter.
The next data set deals with Sarcina lutea. Briefly: disc-plate agar diffusion, antibacterial spectrum. The data set is classed as cell-based. To be noted: Micrococcus luteus; 192 μg/ml; 25 °C; 7 mm = no zone; read-out: Inhibition Zone Diameter.
In data set [14] the test system is Escherichia coli, Chlortetracycline-resistant. Kind of data set: microbe, parasite or virus in culture. The data set is classed as cell-based. To be noted: read-out: Inhibition Zone Diameter.
The test system of a further data set is Streptococcus faecalis. Kind of data set: disc-plate agar diffusion, antibacterial spectrum. Format: cell-based. The following applies: Enterococcus faecalis; 192 μg/ml; 37 °C; 7 mm = no zone; read-out: Inhibition Zone Diameter.
In data set [15] the test system is Escherichia coli W-MB-60. Briefly: special effects spectrum, disc-plate agar diffusion. The data set is classed as cell-based. To be noted: WMB60, 192 μg/ml, read-out: Inhibition Zone Diameter.
The subject of the next data set is Alcaligenes faecalis. Kind of data set: disc-plate agar diffusion, antibacterial spectrum. The data set is classed as cell-based. The following applies: 192 μg/ml, 37 °C, 7 mm = no zone, read-out: Inhibition Zone Diameter.
Another data set deals with Brucella bronchiseptica. Kind of data set: microbe, parasite or virus in culture. Format: cell-based. The following applies: Bordetella bronchiseptica, read-out: Inhibition Zone Diameter.
A further data set relates to Pseudomonas aeruginosa. Briefly: disc-plate agar diffusion, antibacterial spectrum. The data set is classed as cell-based. To be noted: 192 μg/ml, 25 °C, 7 mm = no zone, read-out: Inhibition Zone Diameter.
The test system of data set [16] is Escherichia coli, Grisein-resistant. Kind of data set: cross-resistance, disc-plate agar diffusion. The data set is classed as cell-based. The following applies: read-out: Inhibition Zone Diameter.
The test system of data set [17] is Escherichia coli, Neomycin-resistant. Briefly: cross-resistance, disc-plate agar diffusion. The data set is classed as cell-based. The following applies: read-out: Inhibition Zone Diameter.
For data set [18], the system named is Escherichia coli, Pleocidin-resistant. Briefly: cross-resistance, disc-plate agar diffusion. The data set is classed as cell-based. The following applies: read-out: Inhibition Zone Diameter.
The subject of a further data set is Vibrio percolans. Briefly: disc-plate agar diffusion, antibacterial spectrum. Format: cell-based. To be noted: Comamonas terrigena; 192 μg/ml; 27 °C; 7 mm = no zone; read-out: Inhibition Zone Diameter.
Data set [19] deals with Escherichia coli, Viomycin-resistant. Kind of data set: cross-resistance, disc-plate agar diffusion. The data set is classed as cell-based. The following applies: read-out: Inhibition Zone Diameter.
For data set [20], the system named is Escherichia coli, Chloramphenicol-resistant. Kind of data set: cross-resistance, disc-plate agar diffusion. The data set is classed as cell-based. To be noted: read-out: Inhibition Zone Diameter.
Data set [21] in a line: relative biopotency of blocked intermediate. To be noted: starting material: disodium salt of 842A.

For the compound `COC(=Cc1ccc(OS(=O)(=O)O)cc1)C(=O)OCC1=C(C(=O)O)N2C(=O)[C@](NC(=O)CCC[C@@H](N)C(=O)O)(OC)[C@H]2SC1` [Ic, 7β-(D-5-amino-5-carboxyvaleramido)-3-(α-methoxy-p-sulfooxycinnamoyloxymethyl)-7-methoxy-3-cephem-4-carboxylic acid], the toxicity entry in [1] was “low order of toxicity in mice”. Moreover, the bactericidal action entry in the data set on bacteria was “bactericidal”. Further, in [2] (listed as 7β-(D-5-amino-5-carboxyvaleramido)-3-(α-methyoxy-p-sulfooxycinnamoyloxymethyl)-7), the “resistance to enzymatic degradation / inactivation” value is recorded as “greater resistance to cephalosporinases than cephalothin; also recorded: more resistant to enzymatic degradation than cephalosporin C”. Further, in data set [3], the “protection against infection, oral” value is reported as “protects against infections due to Proteus vulgaris”; the “in vivo activity / protection spectrum” value was “when administered intraperitoneally it is effective against a variety of gram-negative and gram-positive infections”.

For `CO[C@@]1(NC(=O)CCC[C@@H](N)C(=O)O)C(=O)N2C(C(=O)O)=C(COC(N)=O)CS[C@@H]21` [Example 842A], the percent inactivation with Escherichia coli 236 is 38%; in the data set with Proteus mirabilis 241 it was 5%; in the data set with Proteus morganii 356, 69%; with Proteus morganii 251, 80%. Besides, the “appearance in blood / excretion” value in data set [4] (mouse) was “rapidly excreted in the urine”; in data set [4] (mouse, listed as Antibiotic 842A), “appears rapidly in the blood”. The dose excreted at 4 h in [4] (mouse, urine, sc, within four hours after administration, read-out: eliminated/recovered in the urine) is ~79%. The “eliminated/recovered in the urine” value in [4] (within four hours after administration, 240 min, listed as Antibiotic 842A, 240 min) is reported as “approximately 80%”. Moreover, the growth inhibition result in the data set with gram-positive bacteria was “inhibits the growth of the following gram-positive bacteria”; with gram-negative bacteria (in vitro, E. coli, P. vulgaris, A. faecalis, B. bronchiseptica, S. gallinarum, V. percolans, X. vesicatoria) it was “inhibits the growth of the following gram-negative bacteria”. Further, the bactericidal action entry in the data set with bacteria was “bactericidal”. Moreover, the development of resistance result with bacteria was “resistance to it develops slowly”. The “Percent Inactivation After Incubation With Washed Bacterial Cells” value in data set [5] is listed as 54.4%; in data set [6] it was 0%. The apparent isoelectric point in data set [7] (amphoteric compound) is ~3.5 pH. Further, the figures for the stability entry in [7] and in data set [7] (listed as Antibiotic 842A) were “stable” and “relatively stable”, respectively. Also, the “resistance to enzymatic degradation / inactivation” value in data set [2] (listed as Antibiotic 842A) was “greater resistance to cephalosporinases; also recorded: more resistant to enzymatic degradation than cephalosporin C; also recorded: more stable than the latter against certain microorganisms; also recorded: more resistant than cephalosporin C to inactivation by A. faecalis, A. viscosus, Escherichia coli 236, Proteus morganii 251, Proteus morganii 236 and Proteus mirabilis 241”. In addition, the “protection against infection, oral” value in [3] was “protects against infections due to Paracolobactrum arizonae 3270, Proteus vulgaris 1810, and Salmonella schottmuelleri 3010”. Besides, the “in vivo activity / protection spectrum” value in data set [3] (listed as Antibiotic 842A) is “protects against infection with three species of Proteus, two of Salmonella, one strain of Escherichia coli, two of Klebsiella and also against Paracolobactrum arizonae, Aerobacter aerogenes, Pasteurella multocida and Diplococcus pneumoniae 2400; also recorded: effectiveness against the following gram-negative bacteria: Escherichia coli, Proteus vulgaris, Proteus mirabilis, Proteus morganii, Salmonella schottmuelleri, Klebsiella pneumoniae AD, Klebsiella pneumoniae B, and Paracolobactrum arizonae”. Also, the “activity against Salmonella” value in the data set on gram-negative bacteria was “exhibits activity against Salmonella schottmuelleri 3010, S. gallinarum and S. typhosa”.

Take `CO[C@@]1(NC(=O)CCC[C@@H](N)C(=O)O)C(=O)N2C(C(=O)O)=C(CN=[N+]=[N-])CS[C@@H]21` [7β-(D-5-amino-5-carboxyvaleramido)-3-(azidomethyl)-7-methoxy-3-cephem-4-carboxylic acid]: in the data set on Vibrio percolans MB-1272, the zone of inhibition at 5 µg/mL came out at 16 mm. For the same compound, in data set [8], the bioactivity result was “possessed bioactivity against several strains of bacteria”. For the same compound, the zone of inhibition at 100 µg/mL worked out at 20 mm in [9] and 21 mm in the data set on Escherichia coli W-MB-60 [10].

For the compound `CO[C@@]1(NC(=O)CCC[C@@H](N)C(=O)O)C(=O)N2C(C(=O)O)=C(COC(N)=O)CS[C@@H]21` [Sodium Salt], the zone of inhibition at 192 µg/mL in data set [11] was 7 mm; in data set [12], 16 mm; in data set [13], 10 mm; in the data set with Serratia marcescens it was 7 mm; in the data set with Staphylococcus aureus, 7 mm; with Sarcina lutea, 9 mm. Besides, the zone of inhibition at 192 µg/mL in [14] was found to be 23 mm; with Streptococcus faecalis, 7 mm; in the data set with Escherichia coli W-MB-60 [15] (0.1 M phosphate buffer pH 5, 25 °C), 15 mm; with Escherichia coli W-MB-60 [15] (0.1 M phosphate buffer pH 7, 25 °C), 25 mm; in the data set on Alcaligenes faecalis it was 7 mm; with Brucella bronchiseptica, 26 mm. Moreover, the zone of inhibition at 192 µg/mL in the data set with Pseudomonas aeruginosa amounted to 7 mm; in data set [16] it was 16 mm; in [17], 17 mm; in data set [18] it was 17 mm; in the data set with Vibrio percolans, 38 mm; in [19], 30 mm. Moreover, the zone of inhibition at 192 µg/mL in [20] is 16 mm.

As to `CO[C@@]1(NC(=O)CCC[C@@H](NC(=O)OC(C)(C)C)C(=O)O)C(=O)N2C(C(=O)O)=C(COC(N)=O)CS[C@@H]21` [7β-(D-5-N-tertiary-butoxycarbonylamino-5-carboxyvaleramido)-3-(carbamoyloxymethyl)-7-methoxy-3-cephem-4-carboxylic acid], in data set [21], the “biopotency relative to starting material” value was “one-tenth the biopotency of the starting material”.
